Calls of active or inactive are those of the source.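 The calls were made as follows: active = lipid-stain IC50 at or below a set limit, with nuclear-stain toxicity IC50 at least five times higher; inactive = the rest.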 Where only a bound is given, the exact number is not on record here.

For 18 compounds, IC50 cytotoxicity (DAPI nuclear signal decrease) and IC50 results are on record in PubChem BioAssay AID651630 (Sanford-Burnham Center for Chemical Genomics, 2012).

For assay [1], the system named is DAPI. As to the kind of experiment: triacylglycerol accumulation inhibitor potency, dose response, cell-based, panel, Nile Red and DAPI fluorescence, H9c2 (AID 651630).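 Also: cells exposed to compound overnight before fixation and staining.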 Conditions: H9c2 cells, DAPI nuclear fluorescence (cytotoxicity counter-readout), oleic acid.
Assay [2] concerns TAG. Described as above. To be noted: H9c2 cells, Nile Red TAG fluorescence, oleic acid.

As for `CCOc1ccc(CN(C)C(=O)CCl)cc1`, the IC50 cytotoxicity (DAPI nuclear signal decrease) in assay [1] (mean of runs) was > 25 µM (inactive); in assay [1] (run 1), > 25 µM; in assay [1] (run 2) it was > 25 µM. Besides, the half-maximal inhibitory concentration (IC50) in assay [2] (run 1) is > 25 µM; in assay [2] (run 2) it was 22.6 µM.
With `NC(Cc1ccc(C(F)(F)F)cc1)c1csc(Nc2nncc3ccccc23)n1` (stereo unspecified), the figures for the IC50 cytotoxicity (DAPI nuclear signal decrease) in assay [1] (mean of runs), in assay [1] (run 1) and in assay [1] (run 2) were 21.4 µM (inactive), 21.5 µM and 21.3 µM, respectively. Further, the results for the IC50 in assay [2] (mean of runs), in assay [2] (run 1) and in assay [2] (run 2) were > 25 µM (inactive), > 25 µM and > 25 µM, respectively.
Turning to `Cn1cc(/C=N/n2cnc3scc(-c4ccc(Cl)cc4)c3c2=O)c2ccccc21`, the IC50 cytotoxicity (DAPI nuclear signal decrease) in assay [1] (run 1) and in assay [1] (run 2) was > 25 µM throughout. Besides, the figures for the concentration for half-maximal inhibition (IC50) in assay [2] (run 1) and in assay [2] (run 2) were 5.8 µM and < 0.78 µM, respectively.
Regarding `CN1CSC(=S)N(C)C1`, the IC50 cytotoxicity (DAPI nuclear signal decrease) in assay [1] (mean of runs) is > 25 µM (inactive); in assay [1] (run 1) it was > 25 µM; in assay [1] (run 2), > 25 µM. Also, the IC50 is > 25 µM (inactive) in assay [2] (mean of runs), > 25 µM in assay [2] (run 1) and > 25 µM in assay [2] (run 2).
On to `N#CC(C#N)=c1ccc2c(c1)N1C(c3ccccc3)=CC(c3ccccc3)C3CCCCC31N=2` (stereo unspecified), for which the IC50 cytotoxicity (DAPI nuclear signal decrease) in assay [1] (run 1) and in assay [1] (run 2) was > 25 µM throughout. Besides, the 50% inhibitory concentration (IC50) in assay [2] (mean of runs) was 1.92 µM; in assay [2] (run 1) it was 1.59 µM; in assay [2] (run 2), 2.25 µM.
Consider `COc1cc2c(c(OC)c1OC)-c1ccc(OC)c(=O)cc1C(NC(=O)c1ccccc1)CC2` (stereo unspecified), for which the IC50 cytotoxicity (DAPI nuclear signal decrease) is > 25 µM (inactive) in assay [1] (mean of runs), > 25 µM in assay [1] (run 1) and > 25 µM in assay [1] (run 2). Besides, the results for the half-inhibitory concentration (IC50) in assay [2] (run 1) and in assay [2] (run 2) were 12.2 µM and > 25 µM, respectively.
Take `COc1ccc2[nH]c3c(c2c1)CCN1C(=O)C(CC(=O)NCC24CC5CC(CC(C5)C2)C4)C[C@H](C(=O)N(C(C)C)C(C)C)[C@@]31C` (stereo partly specified): the IC50 cytotoxicity (DAPI nuclear signal decrease) in assay [1] (mean of runs) is > 25 µM (inactive); in assay [1] (run 1), > 25 µM; in assay [1] (run 2), > 25 µM. Besides, the 50% inhibitory concentration (IC50) in assay [2] (run 1) was 20.8 µM; in assay [2] (run 2) it was > 25 µM.
Turning to `CC(C)CN(C#N)c1nc(N2CCOCC2)nc(N2CCOCC2)n1`, the figures for the IC50 cytotoxicity (DAPI nuclear signal decrease) in assay [1] (mean of runs), in assay [1] (run 1) and in assay [1] (run 2) were > 25 µM (inactive), > 25 µM and > 25 µM, respectively. Further, the IC50 was 20.5 µM (inactive) in assay [2] (mean of runs), 19.4 µM in assay [2] (run 1) and 21.5 µM in assay [2] (run 2).
As to `CC(=O)Nc1ccc(NC2=Nc3ccccc3N3C2=Nc2c(c(C)nn2-c2ccccc2)C3c2ccccc2)cc1` (stereo unspecified), the values for the IC50 cytotoxicity (DAPI nuclear signal decrease) in assay [1] (mean of runs), in assay [1] (run 1) and in assay [1] (run 2) were > 25 µM (inactive), > 25 µM and > 25 µM, respectively. Also, the values for the IC50 in assay [2] (mean of runs), in assay [2] (run 1) and in assay [2] (run 2) were > 25 µM (inactive), > 25 µM and > 25 µM, respectively.
In the case of `CCC1=Nc2cc(C(=O)NCCCOC)ccc2Sc2ccccc21`, the IC50 cytotoxicity (DAPI nuclear signal decrease) in assay [1] (mean of runs) is > 25 µM (inactive); in assay [1] (run 1) it was > 25 µM; in assay [1] (run 2), > 25 µM. Besides, the IC50 is > 25 µM (inactive) in assay [2] (mean of runs), > 25 µM in assay [2] (run 1) and > 25 µM in assay [2] (run 2).
As to `O=C(/C=C/c1ccc(OCCCF)cc1)NCc1ccc(Cl)c(Cl)c1`, the IC50 cytotoxicity (DAPI nuclear signal decrease) was > 25 µM (inactive) in assay [1] (mean of runs), > 25 µM in assay [1] (run 1) and > 25 µM in assay [1] (run 2). The IC50 in assay [2] (run 1) is > 25 µM; in assay [2] (run 2) it was 21.3 µM.
On to `CCN(CC)CCn1c(SCC(=O)Nc2cccc(OC)c2)nc2c(sc3ccccc32)c1=O`, for which the IC50 cytotoxicity (DAPI nuclear signal decrease) is > 25 µM (inactive) in assay [1] (mean of runs), > 25 µM in assay [1] (run 1) and > 25 µM in assay [1] (run 2). Further, the half-inhibitory concentration (IC50) in assay [2] (mean of runs) is 13.7 µM; in assay [2] (run 1) it was 16.7 µM; in assay [2] (run 2), 10.6 µM.
As to `O=C(Nc1ccccc1)c1ccc(NCC2CCCO2)c(S(=O)(=O)N2CCOCC2)c1` (stereo unspecified), the IC50 cytotoxicity (DAPI nuclear signal decrease) in assay [1] (mean of runs) was > 25 µM (inactive); in assay [1] (run 1), > 25 µM; in assay [1] (run 2), > 25 µM. Also, the results for the IC50 in assay [2] (mean of runs), in assay [2] (run 1) and in assay [2] (run 2) were > 25 µM (inactive), > 25 µM and > 25 µM, respectively.
As for `COc1cc(C)c2sc3ccccc3c(=O)c2c1NCCN(C)C`, the IC50 cytotoxicity (DAPI nuclear signal decrease) in assay [1] (mean of runs) is > 25 µM (inactive); in assay [1] (run 1) it was > 25 µM; in assay [1] (run 2) it was > 25 µM. For the same compound, the IC50 is 9.19 µM in assay [2] (mean of runs), 7.48 µM in assay [2] (run 1) and 10.9 µM in assay [2] (run 2).
Turning to `CC(C)(C)OC(=O)N(CCc1ccccc1)Cc1ccc(OCc2cccc(NC(=O)/C=C/c3ccccc3)c2)cc1`, the IC50 cytotoxicity (DAPI nuclear signal decrease) is > 25 µM (inactive) in assay [1] (mean of runs), > 25 µM in assay [1] (run 1) and > 25 µM in assay [1] (run 2). Besides, the half-inhibitory concentration (IC50) in assay [2] (mean of runs) is 7.63 µM; in assay [2] (run 1), 7.99 µM; in assay [2] (run 2), 7.28 µM.
Turning to `C=CCN1C(=O)/C(=C2\SC(N3CCOCC3)=NC2=O)c2cc(Br)ccc21`, the IC50 cytotoxicity (DAPI nuclear signal decrease) is > 25 µM (inactive) in assay [1] (mean of runs), > 25 µM in assay [1] (run 1) and > 25 µM in assay [1] (run 2). The values for the IC50 in assay [2] (mean of runs), in assay [2] (run 1) and in assay [2] (run 2) were 22.4 µM (inactive), 22.5 µM and 22.4 µM, respectively.
`COc1ccc(-c2sc3ccc(N4CCOCC4)cc3c2C#CCCO)cc1`: the IC50 cytotoxicity (DAPI nuclear signal decrease) in assay [1] (mean of runs) is > 25 µM (inactive); in assay [1] (run 1), > 25 µM; in assay [1] (run 2) it was > 25 µM. Besides, the IC50 was > 25 µM (inactive) in assay [2] (mean of runs), > 25 µM in assay [2] (run 1) and > 25 µM in assay [2] (run 2).
With `Cc1ccc2oc(NC3=NC4(CCCC4)C4=C(CCCC4=O)N3)nc2c1`, the IC50 cytotoxicity (DAPI nuclear signal decrease) is > 25 µM (inactive) in assay [1] (mean of runs), > 25 µM in assay [1] (run 1) and > 25 µM in assay [1] (run 2). Further, the IC50 is 7.66 µM in assay [2] (mean of runs), 8.73 µM in assay [2] (run 1) and 6.6 µM in assay [2] (run 2).
